One series concerns the target T1, ghrelin receptor (Rattus norvegicus, UniProt O08725).
T1 construct: Strips of approximately 1 cm (5 mm wide) of gastric fundus were cut out along the longitudinal axis; from tissue; host or cells: rat gastric fundus strips
The series is described as follows: Ghrelin antagonism in electrically stimulated rat gastric fundus strips (called In Vivo Test). The settings on record: isolated rat gastric fundus strips, electric-field stimulation, ghrelin 0.1 nM-1 μM concentration-response curves, antagonist contact time 30 minutes; read-out: IC50, antagonist activity towards the ghrelin receptor. As for the experimental part:
Male Crl CD BR rats (Charles River, Italy) weighing 150-175 g were housed in a chamber at regulated temperature (22±1° C.) and humidity (55±10%) and with a 12-hour lightness-darkness cycle, for at least 7 days before their use. Feed and water were available ad libitum. The feed was removed 18 hours before sacrificing the animals. The rats were sacrificed by cervical dislocation, and the stomach was removed surgically, opened along the shorter curvature and placed in a Krebs solution (of composition (mM): 118.4 NaCl; 4.7 KCl; 2.5 CaCl2; 3.7 NaH2PO4; 1.2 MgSO4; 25 NaHCO3; 5.6 glucose). The animals were cared for and sacrificed according to the Sanofi-Aventis international code of ethics and the international principles governing the care and treatment of laboratory animals (EEC Directive 86/609, DJL358, 1, 12 Dec. 1987). […] The contractions were recorded by computer with a data recording and analysis system (Power Lab, Chart 5) connected to isotonic transducers (Ugo Basile, Varese, Italy) via preamplifiers (Octal Bridge Amp). […] The pKb values for the antagonists were calculated according to the Cheng-Prusoff equation (Kenakin et al., Competitive Antagonism, Pharmacologic Analysis of Drug-Receptor Interaction, 3rd edition, 331-373, Philadelphia, New York; Raven: Lippincott, 1997).

pIC50: −log10 of the molar value.

The pIC50 is −log10 of the IC50, conventionally taken in molar units. For orientation: melting point means the temperature of the solid-liquid transition.

T1 sequence (O08725 whole entry): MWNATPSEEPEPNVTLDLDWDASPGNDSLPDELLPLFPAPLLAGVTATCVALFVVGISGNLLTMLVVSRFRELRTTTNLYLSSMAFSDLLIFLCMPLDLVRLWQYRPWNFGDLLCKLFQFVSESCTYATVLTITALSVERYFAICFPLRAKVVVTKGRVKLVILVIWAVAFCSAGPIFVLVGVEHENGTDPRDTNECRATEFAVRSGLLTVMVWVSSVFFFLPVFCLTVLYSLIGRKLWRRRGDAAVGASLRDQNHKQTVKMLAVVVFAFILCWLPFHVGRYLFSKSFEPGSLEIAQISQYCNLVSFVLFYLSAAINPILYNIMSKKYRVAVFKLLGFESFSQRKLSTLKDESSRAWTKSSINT

Compound `CCN1CCN(C(C)C(=O)NC2(c3ccc4occc4c3)C(=O)Nc3cc(Cl)cc(Cl)c32)CC1` (single isomer, unassigned; (+)) [Example 2, (+)-N-[4,6-Dichloro-3-(benzofuran-5-yl)-2-oxo-2,3-dihydro-1H-indol-3-yl]-2-(4-ethylpiperazin-1-yl)propionamide] gave a melting point of 137 to 138 °C. On ghrelin receptor, the pIC50 was 7.92.
In the case of `CCN1C(C)CN(CC(=O)NC2(c3ccc4occc4c3)C(=O)Nc3cc(Cl)cc(Cl)c32)CC1C` (single isomer, unassigned; (+)) [Example 1, (+)-N-[4,6-Dichloro-3-(benzofuran-5-yl)-2-oxo-2,3-dihydro-1H-indol-3-yl]-2-(4-ethyl-3,5-dimethylpiperazin-1-yl)acetamide], the melting point lay within 157 to 160 °C.

The values are drawn from patent US9889130B2, “Substituted 3-benzofuranyl-indol-2-one-3-acetamididopiperazine derivatives, preparation thereof, and therapeutic use thereof” (SANOFI, priority 2009, dated 2018).
